Data on three compounds can be found in article PMC10385743.

Data set [1] in a line: Cytotoxicity in Huh5-2 replicon cells (intracellular ATP levels). Conditions: human.
Data set [2] relates to HCV GT 3a (strain S52) subgenomic replicon. The experiment in a line: microbe, parasite or virus in culture. The format is cell-based, hepatitis C virus. Conditions: 72 h, luciferase, mean ± SD, read-out: Huh7.5-3a(S52) (HCV Replicon 3a) EC50.
The subject of data set [3] is HCV GT 4a (strain ED43) subgenomic replicon. The experiment in a line: microbe, parasite or virus in culture. The format is cell-based, hepatitis C virus. As to conditions: for EC50: 72 h, luciferase, mean ± SD, read-out: Huh7.5-4a(ED43) (HCV Replicon 4a) EC50. On the technique in general: In antiviral work, replicon cells carry a viral genome segment that copies itself.

Data set [4] has as its system T. cruzi (CL Brener strain) epimastigotes. Put plainly: microbe, parasite or virus in culture. Conditions: Trypanosoma cruzi, read-out: T. cruzi EC50.
Data set [5] has as its system YFV (strain 17D) subgenomic replicon. Put plainly: microbe, parasite or virus in culture. The format is cell-based, yellow fever virus. Conditions: 72 h, read-out: Huh7-YF (YFV Replicon 17D) EC50.
Another data set deals with HCV GT 1b (Con1). The experiment in a line: Combinatory activity of 34 with daclatasvir (DCV) in Huh5-2 replicon cells, F-Luc activity. The format is cell-based, hepatitis C virus. As for the experimental part:
The Huh5-2 replicon cell line was treated with compound 34 in the presence or absence of daclatasvir (DCV) to test its effectiveness in combination with an authorized NS5A inhibitor (DCV) (Figure 6).
Figure 6 Combinatory activity of 34 with DCV against HCV GT 1b (Con1). Huh5-2 cells were treated or not with the analog in the presence or absence of 20 pM DCV. F-Luc activity was measured and calculated as relative light units (RLU) per μg of total protein. […] CDI: coefficient of drug interaction. […] Error bars represent standard deviation (SD). TEXT PRINTED IN THE PICTURE: DCV + 34: CDI: 1.09 (1μM); CDI: 0.91 (2μM)

Data set [6] has as its system bloodstream form T. b. brucei (strain 221). As to conditions: for SI (CC50 for L6 cells / EC50 for T. brucei): selectivity index.
For data set [7], the system named is DENV serotype 2 (strain 16681) subgenomic replicon. The experiment in a line: microbe, parasite or virus in culture. Format: cell-based, dengue virus. Conditions: 72 h, luciferase, mean ± SD, read-out: Huh7-D2 (DENV-2 Replicon) EC50.
Data set [8] has as its system HCV GT1b (Con1) replicon RNA. As to conditions: Hepatitis C virus, Huh-5-2, read-out: HCV RNA EC50.
Data set [9] has as its system bloodstream form T. b. brucei (strain 221). The experiment in a line: microbe, parasite or virus in culture. As to conditions: Trypanosoma brucei, mean of triplicate experiments ± SEM.
The test system of data set [10] is rat skeletal myoblast L6 cells. The experiment in a line: Cytotoxicity against cultured L6 cells (resazurin). Conditions: read-out: L6 Cells CC50; mean of triplicate experiments ± SEM.
A short description of data set [11]: Cytotoxicity against cultured L6 cells (resazurin). Conditions: rat, L6 rat skeletal myoblast cells, L6 Cells CC50, mean of triplicate experiments ± SEM. A general note: Alamar Blue is a resazurin reagent that responds to reducing activity.
The subject of data set [12] is Huh5-2 cells. The experiment in a line: Cytotoxicity in Huh5-2 replicon cells (intracellular ATP levels). Conditions: read-out: Huh5-2 (HCV Replicon 1b) CC50; 72 h; ATP levels; mean ± SD; * highest concentration used 10 μΜ.
Data set [13] relates to T. cruzi (CL Brener strain) epimastigotes. As to conditions: read-out: T. cruzi EC50; epimastigotes; mean of triplicate experiments ± SEM.
Data set [14] has as its system Huh5-2 cells. On the set-up: method as in PMID 31303998. Conditions: lead compound; read-out: Huh5-2 (HCV Replicon 1b) CC50; cited from earlier work.
Data set [15] has as its system HCV GT 3a (strain S52) subgenomic replicon. On the set-up: method as in PMID 31303998. Conditions: lead compound; read-out: Huh7.5-3a(S52) (HCV Replicon 3a) EC50; cited from earlier work.
The subject of data set [16] is HCV GT 4a (strain ED43) subgenomic replicon. On the set-up: method as in PMID 31303998. Conditions: lead compound; read-out: Huh7.5-4a(ED43) (HCV Replicon 4a) EC50; cited from earlier work.
The subject of data set [17] is DENV serotype 2 (strain 16681) subgenomic replicon. On the set-up: method as in PMID 31303998. As to conditions: lead compound; read-out: Huh7-D2 (DENV-2 Replicon) EC50; cited from earlier work.
For data set [18], the system named is bloodstream form T. b. brucei (strain 221). As to conditions: cited from earlier work.
Data set [19] concerns T. cruzi (CL Brener strain) epimastigotes. On the set-up: method as in PMID 31303998. Conditions: lead compound; cited from earlier work.
Data set [20] has as its system rat skeletal myoblast L6 cells. On the set-up: method as in PMID 31303998. As to conditions: lead compound; cited from earlier work.

Values joined by “and” are separate entries in the source; they are usually repeats but may differ in a detail not shown here. Equal values may be shown once. Read-outs that look alike come from different tables or passages of the source. A value given as a limit tells only on which side of the number the result lay.

Turning to `CC1CCC2(NC(=O)N(CC(=O)NO)C2=O)c2ccccc21` [Compound 34, Ν-(hydroxy)-2-((4R,4′S)/(4S,4′R)-4′-methyl-2,5-dioxo-3′,4′-dihydro-2′H-spiro[imidazolidine-4,1′-naphthalene]-1-yl)acetamide], the CC50 (usually the concentration at which the toxic effect on the cells reaches its halfway point) at 72 h in data set [1] was over 200 µM. Moreover, the EC50 (commonly the concentration giving half of the maximal effect) in [2] (Hepatitis C virus, GT3A) was 0.63 ± 0.08 µM; in data set [3], 0.14 ± 0.01 µM; in [4], over 30 µM; in [5] (Yellow fever virus), over 10 µM; in [7] (Dengue virus, DENV2), over 10 µM; in [8], 0.726 µM. For the same compound, the EC50 in [9] (read-out: T. brucei EC50, cultured bloodstream form) came out at 0.67 ± 0.09 µM. Also, in [3], the “fold more active against GT 4a than lead molecule V” value turned out to be 2.5 fold. Also, the CDI in the data set on HCV GT 1b (Con1) (1 μM 34 with 20 pM DCV) is listed as 1.09; in the data set on HCV GT 1b (Con1) (2 μM 34 with 20 pM DCV), 0.91. For the same compound, in the data set on HCV GT 1b (Con1) (34 in combination with daclatasvir (DCV)), the “coefficient of drug interaction (CDI)” value is listed as “≈ 1”. Also, the “SI (CC50 for L6 cells / EC50 for T. brucei)” value in data set [6] is recorded as 335. Further, in data set [9] (read-out: T. brucei EC90, cultured bloodstream form), the EC90 (as a rule, the concentration at which the effect reaches the 90% level) is 0.92 ± 0.23 µM. For the same compound, the CC50 in [10] came out at 224 ± 20 µM. This compound also registered a CC50 at 6 days in data set [11] of over 200 µM.

On to `CC1CCC2(NC(=O)N(CC(=O)NO)C2=O)c2ccccc21` [Compound 35, Ν-(Hydroxy)-2-((4R,4′R)/(4S,4′S)-4′-methyl-2,5-dioxo-3′,4′-dihydro-2′H-spiro[imidazolidine-4,1′-naphthalene]-1-yl)acetamide], for which the CC50 is over 200 µM in the data set with Huh5-2 cells [12]; > 200 µM and 224 µM in [10]. Besides, the EC50 in [13] was over 30 µM; in data set [2], 0.77 ± 0.03 µM; in data set [3], 0.41 ± 0.02 µM; in [5] (luciferase, mean ± SD), over 10 µM; in [6] (read-out: T. brucei EC50, cultured bloodstream form, mean of triplicate experiments ± SEM) it was 0.56 ± 0.07 µM; in data set [7], over 10 µM. Moreover, the EC90 in data set [6] (read-out: T. brucei EC90, cultured bloodstream form, mean of triplicate experiments ± SEM) stood at 0.86 ± 0.19 µM. The “SI (CC50 for L6 cells / EC50 for T. brucei)” value in [6] was found to be 400.

Turning to `O=C(CN1C(=O)NC2(CCCc3ccccc32)C1=O)NO` (stereo not drawn) [V], the results for the CC50 (with Huh5-2 cells [14]; in data set [20]) were over 200 µM and 419 ± 55 µM, respectively. Further, the EC50 is 2.37 ± 0.17 µM in data set [15]; 0.38 ± 0.04 µM in data set [16]; 61.5 ± 3.86 µM in data set [17]; 0.71 ± 0.12 µM in data set [18] (earlier lead compounds, read-out: T. brucei EC50); over 30 µM in [19]. Moreover, the EC90 in data set [18] (lead compound) was 1.27 ± 0.02 µM; in [19] it was over 30 µM. In data set [18] (lead compound), the “SI (CC50 for L6 cells / EC50 for T. brucei)” value was 590.
